Test results: article PMC5078090, “In vivo screening and discovery of novel candidate thalidomide analogs in the zebrafish embryo and chicken embryo model systems” (Oncotarget, 2016)
Entries after “also recorded” stand apart in the source; their conditions may differ.

Legend:
[1] = system: fli1:EGFP zebrafish embryos; assay: fli1:EGFP zebrafish embryo angiogenesis assay (intersegmental vessel outgrowth and number); type: in vivo; conditions: for Anti-angiogenic activity (loss of ISVs or inhibition of ISV outgrowth): fli1:EGFP embryos, 24 h incubation, result in words; for minimal effective concentration: Danio rerio, 24 h, 24 hpf embryos exposed 24 h, screened 1-200 μg/mL, where no activity was seen the concentration shown is the lowest screened
Method: To determine if our novel thalidomide analogs (Figure 1) had any effect on in vivo angiogenesis, we used fli1:EGFP embryos which express green fluorescent protein (GFP) on endothelial cells throughout development. Embryos were allowed to develop for 24 hours, then exposed to either vehicle or a compound of interest at the concentration range of 1 to 200 μg/mL. During this time the vasculature is rapidly expanding and developing new, naive intersegmental vessels (ISVs). The embryos were imaged after 24 hours of incubation with the drug (Figure 2A). […] We also observed that the potency of each compound varied.
Figure 2 The effect of novel thalidomide analogs on vessel length fli1:EGFP zebrafish were incubated with vehicle or compounds for 24 hours, at which point vessel outgrowth and number were measured. A. Images of zebrafish exposed to the vehicle or test compounds. […] Treatment with C4 (1.5 μg/mL), C18 (50 μg/mL), C81 (50 μg/mL), C82 (5 μg/mL), C83 (20 μg/mL) and C84 (50 μg/mL) show reduction in vessel out growth (white arrow) and in some cases loss of vessel (white asterisks). B. Stalk length & C. stalk number are reduced. Compounds are shown at the lowest concentration producing an effect. The data represent the mean + the standard error of the mean.
Zebrafish embryos were treated with analogs as previously described. Briefly, fli1:EGFP embryos were collected and embryos were allowed to develop for 24 hours. Embryos were dechorionated manually and exposed to test compounds or vehicle control (0.1% DMSO) for a further 24 hours. Embryos were anesthetized with 0.05% MS222 (Tricaine) (Sigma Aldrich) and live visualization of blood vessels was carried out.
(§1) A broad series of novel thalidomide-based compounds were chemically synthesized (WL, NHG and WDF, NIH), dissolved in DMSO, stored in stock concentrations between 10-100 mg/mL, and used at a final working DMSO concentration of 0.1%. The chemical structures of lead compounds of interest were confirmed by chemical characterization (purity >99.5%). Compounds were screened across a range of concentrations from 1-200 μg/mL to determine the lowest effective concentration.

WT Zebrafish = assay: WT zebrafish embryo developmental defect (teratogenicity) screen; type: in vivo; conditions: for Eye development / eye diameter in zebrafish embryos / Pectoral fin development / fin length in zebrafish embryos: Figure 4, result in words; for Lowest effective concentration, WT Zebrafish assay: screened 1-200 μg/mL, where no activity was seen the concentration shown is the lowest screened
chicken embryos = assay: In ovo chicken embryo teratogenicity assay; type: in vivo, white leghorn chicken; conditions: for Damage observed: HH stage 17-18 chicken embryos, 100 μg/mL; for Lowest effective concentration, Chicken assay: HH stage 17-18 embryos, where no activity was seen the concentration shown is the lowest screened; for Teratogenicity in these assays: chicken and zebrafish embryo assays together, result in words
Method: Compounds of interest were screened in chicken and/or zebrafish embryos (Figure 4), to determine if these compounds are teratogenic. The chicken embryo is well established as a model to determine the action of compounds upon development.
Fertilized white leghorn chicken embryos were incubated at 38°C and staged according to the Hamburger and Hamilton (HH) stages of development. Embryos were tested at HH stage 17-18 (day 2.5). Following membrane removal test compounds or vehicle control solutions were applied over the embryo. The eggs were sealed and the development of the embryos was monitored up to HH stage 30 (E9). A minimum of 3 embryos were used per concentration, per drug.

[2] = system: Tg(MPO::EGFP)^114 zebrafish; assay: Tg(MPO::EGFP)^114 zebrafish tail fin clip assay of neutrophil migration to the wound site; type: in vivo; conditions: for minimal effective concentration: Danio rerio, Neutrophil, fin clipped at 72 hpf, imaged at 24 h, screened 1-200 μg/mL, where no activity was seen the concentration shown is the lowest screened; for Effect on neutrophil migration to the wound site (anti-inflammatory activity): fin clipped 72 hpf embryos, result in words
From the text: To assess the immunomodulatory effects of the thalidomide analogs across the concentration range used in the previous assay, the transgenic zebrafish line Tg(MPO::EGFP)^114 was used. These embryos express GFP tagged myeloperoxidase, marking neutrophils during the inflammatory response, for example following injury. […] This allowed us to subsequently assess the anti-inflammatory activity of each compound by immersing embryos in the test drug or vehicle. The embryos were examined for migration of neutrophils to the wound site. In comparison to control embryos (Figure 3A) compounds with anti-inflammatory properties had reduction of at least 50% of neutrophils recruited to the wound site (Figure 3). […] We also screened the previously identified six anti-angiogenic compounds of interest in the Tg(MPO::EGFP)^114 line.
Figure 3 The effect of thalidomide analogs on the inflammatory response to wound healing A. Zebrafish (72 hpf) embryos transgenic for a fluorescently tagged neutrophil marker Tg(MPO::EGFP)^114 were fin clipped to induce an inflammatory response and exposed to vehicle or a test compound. Broken line indicates the tail fin with cut and area of the wound site. […] The data represent the mean + the standard error of the mean.
Tg(MPO::EGFP)^114 embryos were tail fin clipped as previously detailed and incubated with test compounds or vehicle control at 72 hpf. Fish were imaged at 24 hours and the number of migratory neutrophils present at the wound site were counted. Compounds inducing an at least 50% reduction of neutrophils to the wound site were considered to have anti-inflammatory properties in this system. All larvae were assessed for viability and morphological integrity. A minimum of 10 embryos were used per concentration per drug. Error bars represent standard error of the mean.
as §1

[3] = applied at HH stage 17-18, result in words

| Structure (SMILES) | Anti-angiogenic activity (loss of ISVs or inhibition of ISV outgrowth) [1] | Eye development / eye diameter in zebrafish embryos (WT Zebrafish) | Pectoral fin development / fin length in zebrafish embryos (WT Zebrafish) | Lowest effective concentration, WT Zebrafish assay (WT Zebrafish) [µg/mL] | Damage observed (chicken embryos) | Lowest effective concentration, Chicken assay (chicken embryos) [µg/mL] | Defects in chicken embryo development (text and figure legend) (chicken embryos; [3]) | minimal effective concentration [1] [µg/mL] | Lowest effective anti-angiogenic concentration, fli1:EGFP assay (molar) ([1]; inhibition of vessel outgrowth and number, 24 h exposure) [µM] | minimal effective concentration [2] [µg/mL] | Teratogenicity in these assays (chicken embryos) | Effect on neutrophil migration to the wound site (anti-inflammatory activity) [2] | Defects in chicken embryo development (text and figure legend) (chicken embryos; in vivo) |
| --- | --- | --- | --- | --- | --- | --- | --- | --- | --- | --- | --- | --- | --- |
| O=C1c2c(F)c(F)c(F)c(F)c2C(=O)N1c1ccc(F)cc1F [CPS49, reference compound] | reduction in vessel outgrowth (white arrow), loss of vascular connectivity and a decrease in the number of forming blood vessels | – | – | – | – | – | – | – | – | – | – | – | – |
| O=C1c2ccccc2C(=S)N1C1CCC(=S)NC1=S (stereo not shown) [Compound C4] | anti-angiogenic activity | microopthalmia; also recorded: reductions in eye diameter | malformation in fin development | 10 | Necrotic YSM, hemorrhaging | 100 | hemorrhaging; also recorded: abnormal blood vessels and necrotic-like regions in the surrounding yolk sac membrane | 1.5 to 100 | 4.9 | 10 | – | – | – |
| O=C1NC(=S)CCC1N1C(=O)c2cccc([N+](=O)[O-])c2C1=O (stereo not shown) [Compound C7] | without anti-angiogenic activities | – | – | 10 | – | 100 | no effect | 10 | – | 10 | non-teratogenic | reduced neutrophil migration | – |
| CC(=O)Oc1ccc2c(c1)C(=O)N(C1CCC(=O)NC1=O)C2=O (stereo not shown) [Compound C18] | anti-angiogenic activity | reductions in eye diameter | reductions | 50 | Necrotic YSM, stunted growth | 100 | reduced body size compared to control embryos; also recorded: abnormal blood vessels and necrotic-like regions in the surrounding yolk sac membrane | – | – | 50 | – | significantly reduce neutrophil migration | – |
| Nc1ccc2c(c1)OC(=O)C(C1CCC(=O)NC1=O)C2=O (stereo not shown) [Compound C24] | – | – | – | 50 | Necrotic YSM, hemorrhaging | 100 | abnormal blood vessels and necrotic-like regions in the surrounding yolk sac membrane; also recorded: hemorrhaging and necrotic-like damage in the YSM; also recorded: twisted spinal cords, necrotic-like damage in the YSM and high death rates | 50 | – | 50 | – | reduced neutrophil migration | – |
| Nc1cccc2c1CN(C1CCC(=O)NC1=O)C2=S (stereo not shown) [Compound C29] | – | – | – | – | Twisted spines, hemorrhaging | 100 | hemorrhaging and necrotic-like damage in the YSM | 10 | – | 5 | – | reduced neutrophil migration | twisted spinal cords, necrotic-like damage in the YSM and high death rates |
| O=C1c2ccccc2CN1C12CC3CC(CC(O)(C3)C1)C2 [Compound C86] | without anti-angiogenic activities | – | – | – | – | 100 | no effect | 10 | – | 100 | non-teratogenic | reduced neutrophil migration | – |
